Measurements from patent US11478558B2, “Prostate-specific membrane antigen targeted high-affinity agents for endoradiotherapy of prostate cancer” (The Johns Hopkins University, priority 2017, dated 2022).

Assays:
PSMA(+) PC3 PIP cells = experiment: Cell uptake, cell surface binding and internalization in PSMA(+) PC3 PIP cells; type: cell-based, human; conditions: for Blockade PC3 PIP: ZJ43 10 μM; for total uptake within the PSMA(+) PC3 PIP cells: 1 h to 24 h
PSMA(−) PC3 flu cells = experiment: Cell uptake in PSMA(−) PC3 flu cells; type: cell-based, human
[1] = Blood analysis and necropsy after radiotherapy; type: in vivo, NOD/SCID mice; conditions: one-year post-treatment in tumor-free mice, 111 MBq
PSMA+ PC3 PIP tumors = experiment: Radiopharmaceutical therapy in PC3 PIP flank tumor growth delay model; type: in vivo, NOD/SCID mice; conditions: for Tumor disappear (number of mice): week 8 post-treatment; for Average final body weight: single i.v. dose 111 MBq (3 mCi)
Protocol: (§1) A pilot treatment study using NOD/SCID mice (n=10 per group) bearing PSMA+ PC3 PIP tumors with a single intravenous dose of 111 MBq (3 mCi) of agents ^177Lu-PSMA-617, ^177Lu-1, ^177Lu-3 and ^177Lu-5 and the control group (with saline treatment) were performed (Table 8). Volume of the all control group mice reached >5-fold of their initial tumor volume within 14 days. Mouse euthanized for treated group within 4 weeks of post-injection was mainly due to sudden body weight loss and not related to tumor growth. […] The difference among treatment groups was statistically significant (P=0.002) by the log-rank test compared to the untreated group. […] After 8-weeks, three mice from each treated group were used for detailed blood analysis and necropsy study. All animals underwent radiotherapy study had normal creatinine (0.3-0.4 mg/dL) and blood urea nitrogen levels. […] Additionally, a significant lowering of platelet for all three treated mice from ^177Lu-PSMA-617 compared control group and other treated groups.
Median survival for the ^177Lu-PSMA-617 was 133 days vs. 234 days for ^177Lu-1.
The remaining treated mice survived tumor-free for 10 months and were evaluated for toxicity.
(§2) Antitumor efficacy studies were performed in PC3 PIP flank tumor growth delay model to evaluate the therapeutic efficacy of a single dose intravenous injection of ^177Lu-L1, ^177Lu-L3, ^177Lu-L5 and ^177Lu-PSMA-617 vs. saline. This was a head-to-head comparison study and same batch of tumor-bearing mice and radioactivity. The study was commenced 14-18 days post-inoculation of the xenografts, when all the mice had tumor volume of about ˜60-85 mm^3 (Table 8). All the living mice were monitored for 8 weeks to monitor the growth delay. Mice body weight and tumor volume were monitored every 3 days throughout the experiment. Endpoint criteria defined by the institute ACUC was weight loss≥15%, a tumor volume>1800 mm^3, active ulceration of the tumor or abnormal behavior indicating pain or unease. After 8-weeks, three mice from each group were submitted for detail necropsy and blood analysis. Mice group treated with ^177Lu-1 and ^177Lu-PSMA-617 were continued to monitor until the endpoint. These definitions were also used for Kaplan-Meier analysis. The probability of reaching 5 times the initial tumor volume was characterized using Kaplan-Meier curves, and comparison was performed using the log-rank test. The formula used for calculation of tumor volume was V=width^2×length/2. Toxicity of the ^177Lu-treatment groups after 8-weeks and in healthy CD-1 (n=3) mice treated with 111 MBq was evaluated by pathologic examination at the Johns Hopkins Pathology Core facility with serum metabolic panel, blood counts, and full necropsy including detailed histopathology of kidneys, salivary glands and lacrimal glands.

PSMA+ PC3 PIP cells = experiment: Clonogenic cell survival assay in PSMA+ PC3 PIP cells; type: cell-based, human
[2] = tested on: PSMA(+) PC3 PIP and PSMA(−) PC3 flu tumor xenografts; experiment: Biodistribution of 177Lu compounds (Example 5)
[3] = tested on: PSMA(+) tumors and normal tissues; experiment: Self-blocking (receptor blockade) biodistribution; type: in vivo, mouse; conditions: at 10-fold kidney blockade
Description: Development of receptor blockade for normal organs. The blocking effect of 1 was quantified in normal tissues using ^177Lu-1. A drastic reduction of renal uptake was observed while maintaining high uptake in PSMA(+) tumors (FIG. 12). […] Blocking strategies. […] These daughters, once formed, are unlikely to associate with the chelate construct due to high atomic recoil-energy as a result of α-decay. Without wishing to be bound to any one particular theory, it is thought that acute salivary gland toxicity caused by ^225Ac-PSMA-617 is most likely due to PSMA-based internalization of the agent followed by daughter release in striated duct or acini. Both biodistribution data and α-camera imaging will be used to interpret the data. Different pharmacologic agents will be evaluated to avoid renal and salivary gland radio toxicity. […]

[4] = Blood analysis and necropsy after radiotherapy; type: in vivo, NOD/SCID mice
Protocol: as §1
Significant and concerning changes were identified in testes, and lacrimal grands primarily (FIG. 25) for all treated groups. […] Parotid glands, usually adjacent to exorbital lacrimal gland, are conspicuously spared and there were mild changes in the group treated ^177Lu-PSMA-617. […] T lymphoblastic lymphoma is accelerated by irradiation and some carcinogens, and is associated with interactions of endogenous retroviruses/retroelements in NOD/SCID mouse strains. […] The cells are large up to 25 μm, with very large nuclei (for a mouse) usually 2-3 nucleoli, and a high mitotic rate. Testis and lacrimal gland degenerative changes indicate that this animal did receive a treatment similar to other treated mice.
as §2

PC3-ML-Luc-PSMA = experiment: Treatment study in micrometastatic PC3-ML-Luc-PSMA model; type: in vivo, mouse; conditions: 37 MBq
Description: (middle) Changes in bodyweight during the treatment study. (bottom) Kaplan-Meier survival curve for treatment study in micrometastatic PC3-ML-Luc-PSMA model, median survival for 51 days (untreated) vs 52 days for ^177Lu-PSMA-617 (37 MBq) and 56 days for 225Ac-1 (37 kBq) and 79 days for 225Ac-1 (74 kBq);

[5] = 111 MBq (3 mCi), after eight weeks, n=3

| SMILES | Cell uptake PC3 PIP (PSMA(+) PC3 PIP cells; 1 h) | PC3 PIP cell Int (internalization) (PSMA(+) PC3 PIP cells; 1 h) | Blockade PC3 PIP (PSMA(+) PC3 PIP cells; 1 h) | total uptake within the PSMA(+) PC3 PIP cells (PSMA(+) PC3 PIP cells) | Cell uptake PC3 PIP (PSMA(+) PC3 PIP cells; 2 h) | PC3 PIP, line without name (position of cell internalization) (PSMA(+) PC3 PIP cells; 2 h) | Cell uptake PC3 PIP (PSMA(+) PC3 PIP cells; 4 h) | PC3 PIP cell int (internalization) (PSMA(+) PC3 PIP cells; 4 h) | Cell uptake PC3 PIP (PSMA(+) PC3 PIP cells; 24 h) | PC3 PIP cell int (internalization) (PSMA(+) PC3 PIP cells; 24 h) | Cell uptake PC3 flu (PSMA(−) PC3 flu cells; 1 h) | Cell uptake PC3 flu (PSMA(−) PC3 flu cells; 2 h) | Cell uptake PC3 flu (PSMA(−) PC3 flu cells; 4 h) | Cell uptake PC3 flu (PSMA(−) PC3 flu cells; 24 h) | Median survival After 8 weeks post-treatment (PSMA+ PC3 PIP tumors; 111 MBq) | Tumor disappear (number of mice) (PSMA+ PC3 PIP tumors; 111 MBq) | Average final body weight (PSMA+ PC3 PIP tumors) [gram] | also measured |
| --- | --- | --- | --- | --- | --- | --- | --- | --- | --- | --- | --- | --- | --- | --- | --- | --- | --- | --- |
| O=C([O-])CN1CCN(CC(=O)[O-])CCN(CC(=O)NCCCCC(=O)N(CCCC[C@H](NC(=O)N[C@@H](CCC(=O)O)C(=O)O)C(=O)O)Cc2ccc(Br)cc2)CCN(CC(=O)[O-])CC1.[177Lu+3] [^177Lu-L1] | 32.1 ± 0.1 % incubated dose per 1 x 10^6 cells | 18.8 ± 0.8 % incubated dose per 1 x 10^6 cells | 0.2 ± 0.0 % incubated dose per 1 x 10^6 cells | ~30 % of the incubated dose | 36.7 ± 0.5 % incubated dose per 1 x 10^6 cells | 22.0 ± 0.6 % incubated dose per 1 x 10^6 cells | 39.1 ± 0.5 % incubated dose per 1 x 10^6 cells | 26.6 ± 1.2 % incubated dose per 1 x 10^6 cells | 46.2 ± 0.2 % incubated dose per 1 x 10^6 cells | 24.6 ± 0.2 % incubated dose per 1 x 10^6 cells | 0.2 ± 0.0 % incubated dose per 1 x 10^6 cells | 0.1 ± 0.0 % incubated dose per 1 x 10^6 cells | 0.1 ± 0.0 % incubated dose per 1 x 10^6 cells | 0.2 ± 0.1 % incubated dose per 1 x 10^6 cells | Not reached | disappear 7 | 26.1 ± 1.4 | radiation nephropathy at necropsy [1]: did not reveal any radiation nephropathy; Mouse death (number of mice) (PSMA+ PC3 PIP tumors; 111 MBq, up to week 8 post-treatment): Death 1 |
| O=C([O-])CN1CCN(CC(=O)[O-])CCN(CC(=O)O)C(Cc2ccc(NC(=S)NCCCCC(=O)N(CCCC[C@H](NC(=O)N[C@@H](CCC(=O)O)C(=O)O)C(=O)O)Cc3ccc(Br)cc3)cc2)CN(CC(=O)[O-])CC1.[177Lu+3] (some centres unmarked) [^177Lu-L8] | – | – | – | – | – | – | – | – | – | – | – | – | – | – | – | – | – | fold higher internalization compared to 177Lu-7 (PSMA(+) PC3 PIP cells; all time-points up to 24 h): > 1.5 fold; D0 (37% survival) (PSMA+ PC3 PIP cells; 48 h incubation): 0.3-0.6 μCi/mL; Cell surviving fraction (PSMA+ PC3 PIP cells; incubated for 2 h and 24 h): > 0.8; mice with tumor growth with relative volume>5 after 8 weeks (PSMA+ PC3 PIP tumors; 111 MBq, n=10): only two mice; tumor-free survival of remaining treated mice (PSMA+ PC3 PIP tumors; 111 MBq, n=10): 10 months; unexpected death of mice (used for SPECT/CT imaging) (PSMA+ PC3 PIP tumors; 111 MBq, n=10): three mice; PSMA(+) PC3 PIP tumor uptake ([2]; 2 h): 55.4±7.2 % ID/g; PSMA(+) PC3 PIP tumor uptake ([2]; 24 h post-injection): 40.6±7.0 % ID/g; PSMA(+) PC3 PIP tumor uptake ([2]; 48 h): 27.0±7.0 % ID/g; PSMA(+) PC3 PIP tumor uptake ([2]; fourth time point, time not given): 24.9±2.3 % ID/g |
| O=C([O-])CN1CCN(CC(=O)[O-])CCN(C(CCC(=O)NCCCCC(=O)N(CCCC[C@H](NC(=O)N[C@@H](CCC(=O)O)C(=O)O)C(=O)O)Cc2ccc(Br)cc2)C(=O)O)CCN(CC(=O)[O-])CC1.[177Lu+3] (some centres unmarked) [^177Lu-L9] | – | – | – | – | – | – | – | – | – | – | – | – | – | – | – | – | – | cell uptake and internalization (PSMA(+) PC3 PIP cells): ~70%; effect of self-blockade on tumor uptake [3]: significant tumor uptake blockade; Kidney uptake ([2]; 2 h): 149.7±32.0 % ID/g; Kidney uptake ([2]; 24 h (so in the source)): 5.9±2.7 % ID/g; fold renal clearance ([2]; within 24 h): ~30 fold |
| O=C([O-])CN1CCN(CC(=O)[O-])CCN(CC(=O)NCC2CCC(C(=O)N[C@@H](Cc3ccc4ccccc4c3)C(=O)NCCCC[C@H](NC(=O)N[C@@H](CCC(=O)O)C(=O)O)C(=O)O)CC2)CCN(CC(=O)[O-])CC1.[177Lu+3] (some centres unmarked) [^177Lu-PSMA-617, reference compound] | 42.2 ± 0.80 % incubated dose per 1 x 10^6 cells | 18.8 ± 1.2 % incubated dose per 1 x 10^6 cells | 0.1 ± 0.0 % incubated dose per 1 x 10^6 cells | ~40 % of the incubated dose | 44.6 ± 1. % incubated dose per 1 x 10^6 cells | 21.1 ± 0.9 % incubated dose per 1 x 10^6 cells | 47.6 ± 1.13 % incubated dose per 1 x 10^6 cells | 26.1 ± 1.0 % incubated dose per 1 x 10^6 cells | 54.2 ± 0.21 % incubated dose per 1 x 10^6 cells | 26.4 ± 0.8 % incubated dose per 1 x 10^6 cells | 0.1 ± 0.01 % incubated dose per 1 x 10^6 cells | 0.1 ± 0.0 % incubated dose per 1 x 10^6 cells | 0.1 ± 0.06 % incubated dose per 1 x 10^6 cells | 0.1 ± 0.01 % incubated dose per 1 x 10^6 cells | Not reached | disappear 5 | 24.6 ± 3.6 | Albumin [4, 5]: 2.9 ± 0.2 g/dL; Blood urea nitrogen [4, 5]: 23.3 ± 2.5 mg/dL; Hematocrit [4, 5]: 42.9 ± 4.5%; Hemoglobin [4, 5]: 12.8 ± 1.0 g/dL; Lymphocytes [4, 5]: 0.7 ± 0.1 K/μL; Mean Corpuscular Value(MCV) [4, 5]: 52.2 ± 1.6 fL; Neutrophils [4, 5]: 3.5 ± 3.8 K/μL; Platelets [4, 5]: 916.0 ± 141.6 K/μL; Red blood cells [4, 5]: 8.2 ± 0.7 M/μL; Total protein [4, 5]: 5.5 ± 0.5 g/dL; White blood cells [4, 5]: 5.05 ± 4.1 K/μL; H&E pathology of testis ([4]; 111 MBq, after 8 weeks): most significant changes in testis; neutrophil counts ([4]; 111 MBq, after 8 weeks): up to 3.5±3.8 K/mL; median survival (PC3-ML-Luc-PSMA): 52 days; Tumors above stated relative tumor growth after week 8 post-treatment (Vt/V0) (PSMA+ PC3 PIP tumors; 111 MBq): one tumor > 4; median survival (PSMA+ PC3 PIP tumors; 111 MBq, followed to predefined end-point): 133 days; Kidney uptake ([2]; 3 h post-injection): 9.81±6.54 % ID/g |
